# Reference: patent publication USRE48461E1, “Modulation of androgen receptor expression” (Ionis Pharmaceuticals, Inc., priority 2012, dated 2021)
# Oligonucleotides are written 5' to 3', each unit as a sugar letter and its base; * is a phosphorothioate linkage, no mark a phosphodiester; rarer units and linkages stand in square brackets, end groups in braces. Plain capitals give the bases only. e = 2'-O-(2-methoxyethyl) (MOE); k = constrained ethyl (cEt); [5mC] = 5-methylcytosine; d = 2'-deoxy (DNA)
# Experiments:
# [1] = system: AR mRNA; test: AR mRNA in LnCaP cells by free uptake (hAR_LTS00943); assay type: cell-based, human; details: 24 hrs
# Method: Cells were plated at a concentration of 4,000 cells/well in 96-well plates. ISIS oligonucleotides, specified in Table 68, were added individually at 0.02 μM, 0.10 μM, 0.50 μM, 2.50 μM, or 10.00 μM. After an incubation period of 24 hrs, mRNA levels were measured using primer probe set hAR_LTS00943.
# [2] = system: AR mRNA; test: AR mRNA in liver, heart, skeletal muscle, kidney, prostate of cynomolgus monkeys; assay type: in vivo; details: cynomolgus monkey, 40 mg/kg subcutaneously
# Method: Cynomolgus monkeys were treated with ISIS antisense oligonucleotides selected from studies described above. Antisense oligonucleotide efficacy and tolerability were evaluated. The human antisense oligonucleotides tested are cross-reactive with the rhesus genomic sequence (GENBANK Accession No. NW_001218131.1 truncated from nucleotides 134001 to 308000 and designated herein as SEQ ID NO: 189). The target start site and target region of each oligonucleotide to SEQ ID NO: 189, as well as the details of their chemistry and sequence, is presented in Table 133.
# RNA was extracted from liver, heart, skeletal muscle, kidney, and prostate tissues for real-time PCR analysis of AR using primer probe set RTS3559. The results were normalized to RIBOGREEN®. Results are presented as percent inhibition of AR mRNA, relative to PBS control.
# [3] = system: AR mRNA; test: Dose-dependent antisense inhibition of human AR in HuVEC cells (electroporation, qRT-PCR RTS3559, IC50); assay type: cell-based; details: HuVEC, ~16 h, Table 11
# Outline: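 HuVEC cells dosed with antisense oligonucleotides by electroporation and treated approximately 16 hours. AR mRNA quantified by real-time qPCR with primer probe set RTS3559 and normalised to total RNA by RIBOGREEN; IC50 from dose-response.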
substance,measurement,setting,value
579671 (antisense eT*kT*kG*eA*kT*kT*dT*dA*dA*dT*dG*dG*dT*kT*kG*k[5mC]) [compound 579671],Percent inhibition of AR mRNA,[1]; 0.02 μM,15%
same,Percent inhibition of AR mRNA,[1]; 0.1 μM,0%
same,Percent inhibition of AR mRNA,[1]; 0.5 μM,19%
same,Percent inhibition of AR mRNA,[1]; 10 μM,71%
same,"Percent Inhibition of AR mRNA relative to the PBS control, Heart","[2]; weeks 1 to 6, Heart",24%
same,"Percent Inhibition of AR mRNA relative to the PBS control, Kidney","[2]; weeks 1 to 6, Kidney",53%
same,"Percent Inhibition of AR mRNA relative to the PBS control, Liver","[2]; weeks 1 to 6, Liver",33%
same,"Percent Inhibition of AR mRNA relative to the PBS control, Skeletal Muscle","[2]; weeks 1 to 6, Skeletal Muscle",31%
same,percent inhibition of AR,[3]; 62.5 nM,6%
same,percent inhibition of AR,[3]; 125.0 nM,40%
same,percent inhibition of AR,[3]; 500.0 nM,57%
same,percent inhibition of AR,[3]; 1000.0 nM,77%
same,IC50,[3],288 nM
